Patent US20180042982A1, “Methods for Treating HCV” (priority 2013, published 2018)

Legend:
[1] = test system: HCV replicon Genotype 3a; assay: HCV subgenomic stable replicon cell culture assay, genotype 3a; assay type: cell-based; conditions: Hepatitis C virus, read-out: Mean EC50, nM, ± Std. Dev.
Excerpt: (§1) However, these variants had in vitro replication capacities of only 1.5% and 9.2% that of their corresponding wild-type replicons.

[2] = test system: resistance-associated variants in GT 1a (H77) replicon; assay: Activity against resistance-associated variants, GT 1a; assay type: cell-based, Hepatitis C virus
Excerpt: as §1

[3] = test system: HCV; assay: Anti-HCV efficacy of Compound 1 at different doses; design: species or system Hepatitis C virus; conditions: 200-300 mg Compound 1 compared with 400 mg Compound 1
[4] = test system: resistance-associated variants in GT 1b (Con-1) replicon; assay: Activity against resistance-associated variants, GT 1b; assay type: cell-based, Hepatitis C virus
Excerpt: as §1

[5] = test system: replicon containing GT3a NS3 protease; assay: Resistant colony selection in replicon containing GT3a NS3 protease; assay type: cell-based, Hepatitis C virus; conditions: concentrations ≧100-fold over its EC50 value
Excerpt: as §1

For `CC(C)(C)[C@@H]1NC(=O)O[C@@H]2CCC[C@H]2OC/C=C/C(F)(F)c2nc3ccccc3nc2O[C@@H]2C[C@@H](C(=O)N[C@]3(C(=O)NS(=O)(=O)C4(C)CC4)C[C@H]3C(F)F)N(C2)C1=O` [Compound 1], the EC50 [1] was 1.6 ± 0.49 nM, the “activity against common variants at NS3 amino acid positions 155 and 168” value ([2]; GT1a variants conferring resistance to other HCV protease inhibitors) was “retained its activity” and the “activity against NS5A inhibitor and NS5B inhibitor resistance-associated variants” value ([2]; M28T, M28V, Q30D, Q30R, Y93C, Y93H, Y93N, L31V+Y93H, C316Y, M414T, Y448C, Y448H, S556G and S559G in GT 1a) was “potent activity”. The “inhibitory activity against NS3 resistance-associated variants” value ([2]; V36M, R155K, D168A and D168V in GT 1a (H77)) was “nearly equivalent to that against wild-type HCV replicon”, the “anti-HCV efficacy of 200-300 mg versus 400 mg” value [3] was “comparable anti-HCV efficacy” and the “activity against common variants at NS3 amino acid positions 155 and 168” value ([4]; GT1b variants conferring resistance to other HCV protease inhibitors) was “retained its activity”. The “activity against NS5A inhibitor and NS5B inhibitor resistance-associated variants” value ([4]; L28T, Y93H, S282T, C316Y, Y448H and S556G in GT 1b) was “potent activity”, the “inhibitory activity against NS3 resistance-associated variants” value ([4]; T54A, R155K, D168V and V170A in GT 1b (Con-1)) was “nearly equivalent to that against wild-type HCV replicon” and the resistant colony selection [5] was “selected very few colonies”.
